# Reference: patent US9873709B2 (priority 2013, dated 2018)
# Tested on: JAK1-dependent STAT6 phosphorylation downstream of IL-13 stimulation in TF-1 human erythroleukemia cells
# Experiment: cells
# Conditions: TF-1, read-out: IL-13-pSTAT6 IC50
row,SMILES,IC50 [µM]
1,"CN(C)C(=O)C1CN(C(=O)c2ccc(Nc3nc4c(C5=CCN(C(=O)CCC(F)(F)F)CC5)cccn4n3)cc2)CCN1C (stereo not shown) [Example 2-325, N,N,1-trimethyl-4-[4-[[8-[1-(4,4,4-trifluorobutanoyl)-3,6-dihydro-2H-pyridin-4-yl]-[1,2,4]triazolo[1,5-a]pyridin-2-yl]amino]benzoyl] piperazine-2-carboxamide]",0.191
2,"CN1C[C@@H]2CCN(C(=O)c3ccc(Nc4nc5c(C6=CCN(C(=O)CCC(F)(F)F)CC6)cccn5n4)cc3)[C@@H]2C1 [Example 2-326, 1-[4-[2-[4-[(3aS,6aS)-5-methyl-2,3,3a,4,6,6a-hexahydropyrrolo[2,3-c]pyrrole-1-carbonyl]anilino]-[1,2,4]triazolo[1,5-a]pyridin-8-yl]-3,6-dihydro-2H-pyridin-1-yl]-4,4,4-trifluoro-butan-1-one]",0.0042
3,"CN1CCC2(C1)CN(C(=O)c1ccc(Nc3nc4c(C5=CCN(C(=O)CCC(F)(F)F)CC5)cccn4n3)cc1)C2 [Example 2-328, 4,4,4-trifluoro-1-[4-[2-[4-(7-methyl-2,7-diazaspiro[3.4]octane-2-carbonyl)anilino]-[1,2,4]triazolo[1,5-a]pyridin-8-yl]-3,6-dihydro-2H-pyridin-1-yl]butan-1-one]",0.0123
4,"O=C(CCC(F)(F)F)N1CC=C(c2cccn3nc(Nc4ccc(C(=O)N5CCN(C6CCCCC6)CC5)cc4)nc23)CC1 [Example 2-329, 1-[4-[2-[4-(4-cyclohexylpiperazine-1-carbonyl)anilino]-[1,2,4]triazolo[1,5-a]pyridin-8-yl]-3,6-dihydro-2H-pyridin-1-yl]-4,4,4-trifluoro-butan-1-one]",0.0083
5,"CC(C)N1CCC(N(C)C(=O)c2ccc(Nc3nc4c(C5=CCN(C(=O)CCC(F)(F)F)CC5)cccn4n3)cc2)CC1 [Example 2-330, N-(1-isopropyl-4-piperidyl)-N-methyl-4-[[8-[1-(4,4,4-trifluorobutanoyl)-3,6-dihydro-2H-pyridin-4-yl]-[1,2,4]triazolo[1,5-a]pyridin-2-yl]amino]benzamide]",0.0134
6,"COCCN1CCN(C(=O)c2ccc(Nc3nc4c(C5=CCN(C(=O)CCC(F)(F)F)CC5)cccn4n3)cc2)CC1 [Example 2-331, 4,4,4-trifluoro-1-[4-[2-[4-[4-(2-methoxyethyl)piperazine-1-carbonyl]anilino]-[1,2,4]triazolo[1,5-a]pyridin-8-yl]-3,6-dihydro-2H-pyridin-1-yl]butan-1-one]",0.0089
7,"CN1C(C)(C)CC(NC(=O)c2ccc(Nc3nc4c(C5=CCN(C(=O)CCC(F)(F)F)CC5)cccn4n3)cc2)CC1(C)C [Example 2-332, N-(1,2,2,6,6-pentamethyl-4-piperidyl)-4-[[8-[1-(4,4,4-trifluorobutanoyl)-3,6-dihydro-2H-pyridin-4-yl]-[1,2,4]triazolo[1,5-a]pyridin-2-yl]amino]benzamide]",0.0092
8,"CC(C)(CN1CCOCC1)NC(=O)c1ccc(Nc2nc3c(C4=CCN(C(=O)CCC(F)(F)F)CC4)cccn3n2)cc1 [Example 2-333, N-(1,1-dimethyl-2-morpholino-ethyl)-4-[[8-[1-(4,4,4-trifluorobutanoyl)-3,6-dihydro-2H-pyridin-4-yl]-[1,2,4]triazolo[1,5-a]pyridin-2-yl]amino]benzamide]",0.0055
9,"CN1CCC(NC(=O)c2ccc(Nc3nc4c(C5=CCN(C(=O)CCC(F)(F)F)CC5)cccn4n3)cc2)CC1 [Example 2-335, N-(1-methyl-4-piperidyl)-4-[[8-[1-(4,4,4-trifluorobutanoyl)-3,6-dihydro-2H-pyridin-4-yl]-[1,2,4]triazolo[1,5-a]pyridin-2-yl]amino]benzamide]",0.0143
10,"CN(C)CCNC(=O)c1ccc(Nc2nc3c(C4=CCN(C(=O)CCC(F)(F)F)CC4)cccn3n2)cc1 [Example 2-336, N-[2-(dimethylamino)ethyl]-4-[[8-[1-(4,4,4-trifluorobutanoyl)-3,6-dihydro-2H-pyridin-4-yl]-[1,2,4]triazolo[1,5-a]pyridin-2-yl]amino]benzamide]",0.0086
11,"CN1CCCC(CNC(=O)c2ccc(Nc3nc4c(C5=CCN(C(=O)CCC(F)(F)F)CC5)cccn4n3)cc2)C1 (stereo not shown) [Example 2-337, N-[(1-methyl-3-piperidyl)methyl]-4-[[8-[1-(4,4,4-trifluorobutanoyl)-3,6-dihydro-2H-pyridin-4-yl]-[1,2,4]triazolo[1,5-a]pyridin-2-yl]amino]benzamide]",0.0289
12,"O=C(CCC(F)(F)F)N1CC=C(c2cccn3nc(Nc4ccc(C(=O)N5CCCC(N6CCOCC6)C5)cc4)nc23)CC1 (stereo not shown) [Example 2-339, 4,4,4-trifluoro-1-[4-[2-[4-(3-morpholinopiperidine-1-carbonyl)anilino]-[1,2,4]triazolo[1,5-a]pyridin-8-yl]-3,6-dihydro-2H-pyridin-1-yl]butan-1-one]",0.0098

# The next lines start with the values.
row,IC50 [µM],SMILES
1,0.0039,"O=C(CCC(F)(F)F)N1CC=C(c2cccn3nc(Nc4ccc(C(=O)N5CCN(CC6CCCO6)CC5)cc4)nc23)CC1 (stereo not shown) [Example 2-340, 4,4,4-trifluoro-1-[4-[2-[4-[4-(tetrahydrofuran-2-ylmethyl)piperazine-1-carbonyl]anilino]-[1,2,4]triazolo[1,5-a]pyridin-8-yl]-3,6-dihydro-2H-pyridin-1-yl]butan-1-one]"
2,0.0114,"O=C(CCC(F)(F)F)N1CC=C(c2cccn3nc(Nc4ccc(C(=O)N5CCCC(c6ccccn6)C5)cc4)nc23)CC1 (stereo not shown) [Example 2-341, 4,4,4-trifluoro-1-[4-[2-[4-[3-(2-pyridyl)piperidine-1-carbonyl]anilino]-[1,2,4]triazolo[1,5-a]pyridin-8-yl]-3,6-dihydro-2H-pyridin-1-yl]butan-1-one]"
3,0.0162,"CNC(=O)C1CN(C(=O)c2ccc(Nc3nc4c(C5=CCN(C(=O)CCC(F)(F)F)CC5)cccn4n3)cc2)CCN1Cc1ccccc1 (stereo not shown) [Example 2-342, 1-benzyl-N-methyl-4-[4-[[8-[1-(4,4,4-trifluorobutanoyl)-3,6-dihydro-2H-pyridin-4-yl]-[1,2,4]triazolo[1,5-a]pyridin-2-yl]amino]benzoyl] piperazine-2-carboxamide]"
4,1.8,"CC(=O)N1CC=C(c2cccn3nc(Nc4ccc(C(=O)N(C)C5CCN(C)CC5)cc4)nc23)CC1 [Example 2-344, 4-[[8-(1-acetyl-3,6-dihydro-2H-pyridin-4-yl)-[1,2,4]triazolo[1,5-a]pyridin-2-yl]amino]-N-methyl-N-(1-methyI-4-piperidyl)benzamide]"
5,0.0237,"CC(C)COC(=O)N1CC=C(c2cccn3nc(Nc4ccc(C(=O)N(C)C5CCN(C)CC5)cc4)nc23)CC1 [Example 2-345, isobutyl 4-[2-[4-[methyl-(1-methyl-4-piperidyl)carbamoyl]anilino]-[1,2,4]triazolo[1,5-a]pyridin-8-yl]-3,6-dihydro-2H-pyridine-1-carboxylate]"
6,0.0891,"CN1CCC(N(C)C(=O)c2ccc(Nc3nc4c(C5=CCN(C(=O)OC6CCOC6)CC5)cccn4n3)cc2)CC1 (stereo not shown) [Example 2-346, tetrahydrofuran-3-yl 4-[2-[4-[methyl-(1-methyl-4-piperidyl)carbamoyl]anilino]-[1,2,4]triazolo[1,5-a]pyridin-8-yl]-3,6-dihydro-2H-pyridine-1-carboxylate]"
7,0.0347,"CN1CCC(N(C)C(=O)c2ccc(Nc3nc4c(C5=CCN(C(=O)C6CCCCC6)CC5)cccn4n3)cc2)CC1 [Example 2-348, 4-[[8-[1-(cyclohexanecarbonyl)-3,6-dihydro-2H-pyridin-4-yl]-[1,2,4]triazolo[1,5-a]pyridin-2-yl]amino]-N-methyl-N-(1-methyl-4-piperidyl)benzamide]"
